Measurements reported in patent publication US20250154169A1, “COMPOUNDS AND METHODS FOR MODULATING SPLICING” (REMIX THERAPEUTICS INC., priority 2021, published 2025).

Assays:
HTT mRNA = experiment: Splicing RT-qPCR assay, HTT canonical (CJ) and alternative (AJ) junction mRNA; assay type: cell-based, human; conditions: Homo sapiens, A673 or K562 cells, 24 hours compound treatment; for IC50: 24 h, read-out: HTT CJ (IC50, decrease in canonical junction mRNA); for AC50: read-out: HTT AJ (AC50, increase in alternative junction mRNA)
Experimental: (§1) Compounds described herein were used to modulate RNA transcript abundance in cells. The expression of a target mRNA was measured by detecting the formation of an exon-exon junction in the canonical transcript (CJ). A compound mediated exon-inclusion event was detected by observing an increase in formation of a new junction with an alternative exon (AJ). Real-time qPCR assays were used to detect these splicing switches and interrogate the potency of various compounds towards different target genes. A high-throughput real time quantitative PCR (RT-qPCR) assay was developed to measure these two isoforms of the mRNA (CJ and AJ) for exemplary genes, such as HTT, SMN2, and MYB, together with a control housekeeping gene, GAPDH or GUSB or PPIA, used for normalization. Briefly, the A673 or K562 cell line was treated with various compounds described herein (e.g., compounds of Formula (I)). After treatment, the levels of the HTT, MYB, or SMN2 mRNA targets were determined from each sample of cell lysate by cDNA synthesis followed by qPCR.
(§2) • Cells-to-CT 1-step kit: ThermoFisher A25602, Cells-to-CT lysis reagent: ThermoFisher 4391851C, TaqMan™ Fast Virus 1-Step Master Mix: ThermoFisher 4444436 • GAPDH: VIC-PL, ThermoFisher 4326317E (Assay: Hs99999905_m1)—used for K562/suspension cell lines • GUSB: VIC-PL, ThermoFisher 4326320E (Assay: Hs99999908_m1)—used for K562/suspension cell lines • PPIA: VIC-PL, ThermoFisher 4326316E (Assay: Hs99999904_m1)—used for A673/adherent cell lines
(§3) The A673 cell line was cultured in DMEM with 10% FBS. Cells were diluted with full growth media and plated in a 96-well plate (15,000 cells in 100 ul media per well). The plate was incubated at 37° C. with 5% CO2 for 24 hours to allow cells to adhere. An 11-point 3-fold serial dilution of the compounds was made in DMSO then diluted in media in an intermediate plate. Compounds were transferred from the intermediate plate to the cell plate with the top dose at a final concentration of 10 uM in the well. Final DMSO concentration was kept at or below 0.25%. The cell plate was returned to the incubator at 37° C. with 5% CO2 for an additional 24 hours.
(§4) The K562 cell line was cultured in IMDM with 10% FBS. For K562, cells were diluted with full growth media and plated in either a 96-well plate (50,000 cells in 50 uL media per well) or a 384-well plate (8,000-40,000 cells in 45 uL media per well). An 11-point 3-fold serial dilution of the compounds were made in DMSO then diluted in media in an intermediate plate. Compound was transferred from the intermediate plate to the cell plate with the top dose at a final concentration of 10 uM in the well. Final DMSO concentration was kept at or below 0.25%. Final volume was 100 uL for 96-well plate and 50 uL for 384-well plate. The cell plate was then placed in an incubator at 37° C. with 5% CO2 for 24 hours.
(§5) The cells were then gently washed with 50 uL-100 uL cold PBS before proceeding to addition of lysis buffer. 30 uL-50 uL of room temperature lysis buffer with DNAse I (and optionally RNAsin) was added to each well. Cells were shaken/mixed thoroughly at room temperature for 5-10 minutes for lysis to take place and then 3 uL-5 uL of room temperature stop solution was added and wells were shaken/mixed again. After 2-5 minutes, the cell lysate plate was transferred to ice for RT-qPCR reaction setup. The lysates could also be frozen at −80° C. for later use.
(§6) In some cases, a direct lysis buffer was used. An appropriate volume of 3× lysis buffer (10 mM Tris, 150 mM NaCl, 1.5%-2.5% Igepal and 0.1-1 U/uL RNAsin, pH 7.4) was directly added to either K562 or A673 cells in media and mixed by pipetting 3 times. The plates were then incubated at room temperature with shaking/rocking for 20-50 minutes to allow for lysis to take place. After this time, the cell lysate plate was transferred to ice to set up for the RT-qPCR reactions. The lysates could also be frozen at −80° C. for later use. […]

MYB mRNA = experiment: Splicing RT-qPCR assay, MYB canonical (CJ) and alternative (AJ) junction mRNA; assay type: cell-based, human; conditions: Homo sapiens, 24 h, A673 or K562 cells, 24 hours compound treatment, RT-qPCR; for AC50: read-out: MYB AJ (AC50, increase in alternative junction mRNA); for IC50: read-out: MYB CJ (IC50, decrease in canonical junction mRNA)
Experimental: as §1, §2, §3, §4, §5, §6

IC50 (HTT mRNA) | IC50 (MYB mRNA) | SMILES | AC50 (HTT mRNA) | AC50 (MYB mRNA)
1 to 10 µM | < 0.1 µM | CCn1cc2c(N3CC[C@@H](NC)C3)cc(F)c(C(=O)Nc3cc(F)c4nc(C)cn4c3)c2n1 [Compound 479, 2-ethyl-6-fluoro-N-{8-fluoro-2-methylimidazo[1,2-a]pyridin-6-yl}-4-[(3R)-3-(methylamino)pyrrolidin-1-yl]indazole-7-carboxamide; trifluoroacetic acid] | 1 to 10 µM | < 0.1 µM
0.1 to 1 µM | < 0.1 µM | CCn1cc2c(N3CCN(C)CC3)cc(F)c(C(=O)Nc3cc(F)c4nc(C)cn4c3)c2n1 [Compound 481, 2-ethyl-6-fluoro-N-{8-fluoro-2-methylimidazo[1,2-a]pyridin-6-yl}-4-(4-methylpiperazin-1-yl) indazole-7-carboxamide] | 1 to 10 µM | 0.1 to 1 µM
> 10 µM | 1 to 10 µM | CCn1cc2c(N3CC4(CCCN4)C3)ccc(C(=O)Nc3cc(F)c4nc(C)cn4c3)c2n1 [Compound 482, 4-{2,5-diazaspiro[3.4]octan-2-yl}-2-ethyl-N-{8-fluoro-2-methylimidazo[1,2-a]pyridin-6-yl}indazole-7-carboxamide] | > 10 µM | 1 to 10 µM
> 10 µM | > 10 µM | Cc1cc(NC(=O)c2ccc(N3CCNCC3)c3cn(C)nc23)c(O)c2cn(C)nc12 [Compound 484, N-(4-hydroxy-2,7-dimethylindazol-5-yl)-2-methyl-4-(piperazin-1-yl) indazole-7-carboxamide] | > 10 µM | > 10 µM
0.1 to 1 µM | 0.1 to 1 µM | Cc1cn2cc(NC(=O)c3ccc(N4CCOCC4)c4cn(C)nc34)cc(F)c2n1 [Compound 486, N-{8-fluoro-2-methylimidazo[1,2-a]pyridin-6-yl}-2-methyl-4-(morpholin-4-yl) indazole-7-carboxamide] | 0.1 to 1 µM | 0.1 to 1 µM
1 to 10 µM | 1 to 10 µM | Cc1cn2cc(NC(=O)c3ccc(N4CCCC4)c4cn(C)nc34)cc(F)c2n1 [Compound 487, N-{8-fluoro-2-methylimidazo[1,2-a]pyridin-6-yl}-2-methyl-4-(pyrrolidin-1-yl) indazole-7-carboxamide] | 1 to 10 µM | 1 to 10 µM
> 10 µM | > 10 µM | Cc1nnc2ccc(NC(=O)c3ccc(N4CCNCC4)c4cn(C)nc34)cn12 [Compound 488, 2-methyl-N-{3-methyl-[1,2,4]triazolo[4,3-a]pyridin-6-yl}-4-(piperazin-1-yl) indazole-7-carboxamide] | > 10 µM | > 10 µM
> 10 µM | > 10 µM | Cc1nc2cc(NC(=O)c3ccc(N4CCNCC4)c4cn(C)nc34)ccn2n1 [Compound 489, 2-methyl-N-{2-methyl-[1,2,4]triazolo[1,5-a]pyridin-7-yl}-4-(piperazin-1-yl) indazole-7-carboxamide] | > 10 µM | > 10 µM
> 10 µM | 1 to 10 µM | Cc1cn2cc(NC(=O)c3ccc(N4CCNCC4)c4c[nH]nc34)cc(F)c2n1 [Compound 490, N-{8-fluoro-2-methylimidazo[1,2-a]pyridin-6-yl}-4-(piperazin-1-yl)-2H-indazole-7-carboxamide] | > 10 µM | 1 to 10 µM
1 to 10 µM | 0.1 to 1 µM | CCn1cc2c(N3CC4(CCNC4)C3)ccc(C(=O)Nc3cc(F)c4nc(C)cn4c3)c2n1 [Compound 491, 4-{2,6-diazaspiro[3.4]octan-2-yl}-2-ethyl-N-{8-fluoro-2-methylimidazo[1,2-a]pyridin-6-yl}indazole-7-carboxamide] | > 10 µM | 1 to 10 µM
1 to 10 µM | 0.1 to 1 µM | CCn1cc2c(N3CC4(CCNCC4)C3)ccc(C(=O)Nc3cc(F)c4nc(C)cn4c3)c2n1 [Compound 492, 4-{2,7-diazaspiro[3.5]nonan-2-yl}-2-ethyl-N-{8-fluoro-2-methylimidazo[1,2-a]pyridin-6-yl}indazole-7-carboxamide] | > 10 µM | 1 to 10 µM
> 10 µM | > 10 µM | CN1CCN(c2ccc(C(=O)Nc3cc(F)c4nc(CO)oc4c3)c3nn(C)cc23)CC1 [Compound 494, N-[4-fluoro-2-(hydroxymethyl)-1,3-benzoxazol-6-yl]-2-methyl-4-(4-methylpiperazin-1-yl) indazole-7-carboxamide] | > 10 µM | > 10 µM
> 10 µM | > 10 µM | CO[C@H]1C[C@H](n2cc3c(N4CCNCC4)ccc(C(=O)Nc4cc(F)c5nc(C)cn5c4)c3n2)C1 [Compound 496, Cis-N-(8-fluoro-2-methylimidazo[1,2-a]pyridin-6-yl)-2-((1s,3s)-3-methoxycyclobutyl)-4-(piperazin-1-yl)-2H-indazole-7-carboxamide 2,2,2-trifluoroacetate] | > 10 µM | > 10 µM
0.1 to 1 µM | < 0.1 µM | Cc1cn2cc(NC(=O)c3ccc(N4CCNCC4)c4cn(CC5COC5)nc34)cc(F)c2n1 [Compound 497, N-{8-fluoro-2-methylimidazo[1,2-a]pyridin-6-yl}-2-(oxetan-3-ylmethyl)-4-(piperazin-1-yl) indazole-7-carboxamide] | 0.1 to 1 µM | < 0.1 µM
0.1 to 1 µM | 0.1 to 1 µM | CCn1cc2c(OC3CCNC3)ccc(C(=O)Nc3cc(F)c4nc(C)cn4c3)c2n1 (stereo not drawn) [Compound 498, 2-ethyl-N-{8-fluoro-2-methylimidazo[1,2-a]pyridin-6-yl}-4-(pyrrolidin-3-yloxy) indazole-7-carboxamide] | 1 to 10 µM | 0.1 to 1 µM
> 10 µM | > 10 µM | Cn1cc2c(N3CCNCC3)ccc(C(=O)Nc3ccc4c(c3)oc(=O)n4C)c2n1 [Compound 499, 2-methyl-N-(3-methyl-2-oxo-2,3-dihydrobenzo[d]oxazol-6-yl)-4-(piperazin-1-yl)-2H-indazole-7-carboxamide] | > 10 µM | > 10 µM
> 10 µM | > 10 µM | CCNC1CCN(c2ccc(C/N=C3\C=C(F)c4nc(C)cn4C3)c3nn(C)cc23)CC1 [Compound 500, N-ethyl-1-[7-({[(6E)-8-fluoro-2-methyl-5H-imidazo[1,2-a]pyridin-6-ylidene]amino}methyl)-2-methylindazol-4-yl]piperidin-4-amine] | > 10 µM | > 10 µM
< 0.1 µM | < 0.1 µM | CCNC1CCN(c2ccc(C(=O)Nc3cn4cc(C)nc4c(F)c3OC)c3oc(C)cc23)CC1 [Compound 501, 4-(4-(ethylamino)piperidin-1-yl)-N-(8-fluoro-7-methoxy-2-methylimidazo[1,2-a]pyridin-6-yl)-2-methylbenzofuran-7-carboxamide 2,2,2-trifluoroacetate] | < 0.1 µM | < 0.1 µM
